The term IC50 denotes the concentration needed to halve the response being measured. A low value points to higher potency.

In this test the target is MTP (Homo sapiens, UniProt P55157). The experiment in a line: MTP assay (triglyceride transfer from donor to acceptor vesicles). It is filed as biochemical. The settings on record: MTP activity, percent triglyceride transfer from donor to acceptor vesicles, 37° C. As for the experimental part: MTP activity was measured using an assay similar to one described by J. R. Wetterau and D. B. Zilversmit in Chemistry and Physics of Lipids, 38, 205-222 (1985). To prepare the donor and acceptor vesicles, the appropriate lipids in chloroform were put into a glass test tube and dried under a stream of nitrogen. A buffer containing 15 mM Tris-HCl pH 7.5, 1 mM EDTA, 40 mM NaCl, 0.02% NaN3 (assay buffer) was added to the dried lipid. The mixture was vortexed briefly and the lipids were then allowed to hydrate for 20 minutes on ice. Vesicles were then prepared by bath sonication (Branson 2200) at room temperature for maximum 15 minutes. Butylated hydroxytoluene was included in all vesicle preparations at a concentration of 0.1%. The lipid transfer assay mixture contained donor vesicles (40 nmol phosphatidylcholine, 7.5 mol % of cardiolipin and 0.25 mol % glycerol tri [1-^14C]-oleate), acceptor vesicles (240 nmol phosphatidylcholine) and 5 mg BSA in a total volume of 675 μl in a 1.5 ml microcentrifuge tube. Test compounds were added dissolved in DMSO (0.13% final concentration). After 5 minutes of pre-incubation at 37° C., the reaction was started by the addition of MTP in 100 μl dialysis buffer. The reaction was stopped by the addition of 400 μl DEAE-52 cellulose pre-equilibrated in 15 mM Tris-HCl pH 7.5, 1 mM EDTA, 0.02% NaN3 (1:1, vol/vol). The mixture was agitated for 4 minutes and centrifuged for 2 minutes at maximum speed in an Eppendorf centrifuge (4° C.) to pellet the DEAE-52-bound donor vesicles. An aliquot of the supernatant containing the acceptor liposomes was counted and the [^14C]-counts were used to calculate the percent triglyceride transfer from donor to acceptor vesicles.
Sequence of MTP (P55157 19-894, species assumed): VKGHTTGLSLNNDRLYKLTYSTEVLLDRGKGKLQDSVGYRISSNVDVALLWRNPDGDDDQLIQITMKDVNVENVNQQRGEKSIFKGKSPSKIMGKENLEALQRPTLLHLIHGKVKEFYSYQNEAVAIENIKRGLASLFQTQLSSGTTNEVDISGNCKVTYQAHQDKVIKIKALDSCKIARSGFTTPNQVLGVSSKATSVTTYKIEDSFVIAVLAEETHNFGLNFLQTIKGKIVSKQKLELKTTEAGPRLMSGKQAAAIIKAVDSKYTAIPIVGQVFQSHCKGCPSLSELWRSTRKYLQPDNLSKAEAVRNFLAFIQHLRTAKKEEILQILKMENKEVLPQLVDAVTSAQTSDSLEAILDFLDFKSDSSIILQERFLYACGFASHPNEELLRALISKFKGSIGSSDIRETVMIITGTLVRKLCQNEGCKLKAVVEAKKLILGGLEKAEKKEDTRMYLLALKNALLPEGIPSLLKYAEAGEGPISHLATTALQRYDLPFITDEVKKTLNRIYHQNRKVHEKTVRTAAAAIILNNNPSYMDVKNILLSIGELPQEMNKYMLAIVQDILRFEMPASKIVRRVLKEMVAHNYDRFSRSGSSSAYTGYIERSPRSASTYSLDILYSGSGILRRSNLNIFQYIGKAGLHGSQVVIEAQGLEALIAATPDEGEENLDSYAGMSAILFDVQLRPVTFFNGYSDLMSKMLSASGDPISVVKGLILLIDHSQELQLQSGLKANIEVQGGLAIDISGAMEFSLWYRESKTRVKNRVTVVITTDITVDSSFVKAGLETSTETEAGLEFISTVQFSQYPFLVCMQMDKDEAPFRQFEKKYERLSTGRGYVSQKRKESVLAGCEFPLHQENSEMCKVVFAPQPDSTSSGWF
Sequence of MTP (P07237 18-508 partner, species assumed): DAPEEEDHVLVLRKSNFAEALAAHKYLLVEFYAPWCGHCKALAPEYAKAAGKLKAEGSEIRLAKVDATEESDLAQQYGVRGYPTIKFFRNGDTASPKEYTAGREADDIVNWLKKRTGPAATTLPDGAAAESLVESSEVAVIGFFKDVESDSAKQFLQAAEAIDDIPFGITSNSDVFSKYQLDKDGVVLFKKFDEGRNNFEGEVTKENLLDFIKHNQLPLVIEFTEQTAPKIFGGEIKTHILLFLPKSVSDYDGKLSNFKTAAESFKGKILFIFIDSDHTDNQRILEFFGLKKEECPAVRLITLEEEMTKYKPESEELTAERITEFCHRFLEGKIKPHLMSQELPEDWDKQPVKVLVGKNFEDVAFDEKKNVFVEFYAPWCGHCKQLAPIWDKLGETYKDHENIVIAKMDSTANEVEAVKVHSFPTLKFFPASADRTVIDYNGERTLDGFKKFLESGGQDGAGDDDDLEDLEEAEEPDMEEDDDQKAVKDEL
`CCOC(=O)CC(C)NC(=O)[C@@]1(c2ccccc2)CC[C@H](C(=O)N2CCC(NC(=O)c3cccn(C)c3=O)CC2)c2ccccc21` (mixture of isomers) [Co. No. 223] gave a half-inhibitory concentration (IC50) of 1790 nM. With `CCNC(=O)[C@]1(c2ccccc2)CC[C@H](C(=O)N2CCC(NC(=O)c3ccccc3OC)CC2)c2ccccc21` [Co. No. 9] the figure was 689 nM; with `C=CCOC(=O)[C@]1(c2ccccc2)CC[C@H](C(=O)N2CCC(NC(=O)c3ccccc3)CC2)c2ccccc21` [Co. No. 12], 778 nM; with `CCNC(=O)[C@]1(c2ccccc2)CC[C@@H](CN2CCC(NC(=O)c3ccccc3)CC2)c2ccccc21` [Co. No. 17], 277 nM. As for `CCOC(=O)[C@]1(c2ccccc2)CC[C@H](C(=O)N2CCN(C(=O)c3ccccc3)CC2)c2ccccc21` [Co. No. 29], the IC50 was 3340 nM. With `CCOC(=O)[C@]1(c2ccccc2)CC[C@H](C(=O)N2CCN(C(=O)c3ccccc3OC)CC2)c2ccccc21` [Co. No. 30] the figure was 601 nM. In the case of `CCOC(=O)[C@]1(c2ccccc2)CC[C@H](C(=O)N2CCN(C(=O)c3ccccc3-c3ccc(C(F)(F)F)cc3)CC2)c2ccccc21` [Co. No. 31] it was 348 nM; in that of `COc1ccccc1C(=O)NC1CCN(C(=O)[C@H]2CC[C@](C(N)=O)(c3ccccc3)c3ccccc32)CC1` [Co. No. 37], 7830 nM; in that of `CCNC(=O)[C@]1(c2ccccc2)CC[C@@H](C(=O)N2CCC(NC(=O)c3ccccc3OC)CC2)c2ccccc21` [Co. No. 38], 3820 nM. Compound `COC(=O)[C@]1(c2ccccc2)CC[C@@H](C(=O)N2CCC(NC(=O)c3cc(S(N)(=O)=O)ccc3OC)CC2)c2ccccc21` [Co. No. 52] showed an IC50 of 627 nM. In the case of `COC(=O)[C@]1(c2ccccc2)CC[C@@H](C(=O)N2CCC(NC(=O)c3ccccc3OC)CC2)c2ccccc21` [Co. No. 60] it was 2.51 nM; in that of `CCOC(=O)[C@H](CO)NC(=O)[C@@]1(c2ccccc2)CC[C@H](C(=O)N2CCC(NC(=O)c3ccccc3OC)CC2)c2ccccc21` [Co. No. 71], 493 nM; in that of `CCOC(=O)[C@@H]1CCCN1C(=O)[C@@]1(c2ccccc2)CC[C@H](C(=O)N2CCC(NC(=O)c3ccccc3OC)CC2)c2ccccc21` [Co. No. 76], 326 nM.

In the case of `CCOC(=O)[C@H]1CCCN1C(=O)[C@@]1(c2ccccc2)CC[C@H](C(=O)N2CCC(NC(=O)c3ccccc3OC)CC2)c2ccccc21` [Co. No. 77], the IC50 was 217 nM. In the case of `COC(=O)[C@@H]1C[C@@H](O)CN1C(=O)[C@@]1(c2ccccc2)CC[C@H](C(=O)N2CCC(NC(=O)c3ccccc3OC)CC2)c2ccccc21` [Co. No. 78] it was 3820 nM; in that of `COc1ccccc1C(=O)NC1CCN(C(=O)[C@H]2CC[C@@](C(=O)N(C)CC(=O)OC(C)(C)C)(c3ccccc3)c3ccccc32)CC1` [Co. No. 87], 11.7 nM. `COc1ccccc1C(=O)NC1CCN(C(=O)[C@H]2CC[C@@](C(=O)N3C[C@H](OC(C)(C)C)C[C@H]3C(=O)OC(C)(C)C)(c3ccccc3)c3ccccc32)CC1` [Co. No. 91] had a half-inhibitory concentration (IC50) above 100 nM.

In the case of `COc1ccccc1C(=O)NC1CCN(C(=O)[C@H]2CC[C@@](C(=O)N3C[C@H](O)C[C@H]3C(=O)O)(c3ccccc3)c3ccccc32)CC1` [Co. No. 92], the IC50 was above 10000 nM. `COc1ccccc1C(=O)NC1CCN(C(=O)[C@H]2CC[C@@](C(=O)N[C@H](C)C(=O)OC(C)(C)C)(c3ccccc3)c3ccccc32)CC1` [Co. No. 93]: 9.33 nM corresponded to half-maximal inhibition (IC50). For the compound `COc1ccccc1C(=O)NC1CCN(C(=O)[C@H]2CC[C@@](C(=O)N3CCCC3C(=O)OC(C)(C)C)(c3ccccc3)c3ccccc32)CC1` (some centres unmarked) [Co. No. 94], the IC50 is 210 nM.

`COc1ccccc1C(=O)NC1CCN(C(=O)[C@H]2CC[C@@](C(=O)N[C@@H](C(=O)OC(C)(C)C)c3ccccc3)(c3ccccc3)c3ccccc32)CC1` [Co. No. 95] gave a 50% inhibitory concentration (IC50) of 140 nM. With `COc1ccccc1C(=O)NC1CCN(C(=O)[C@H]2CC[C@@](C(=O)N[C@H](C)C(=O)O)(c3ccccc3)c3ccccc32)CC1` [Co. No. 97] the figure was 4120 nM. With `COc1ccccc1C(=O)NC1CCN(C(=O)[C@H]2CC[C@@](C(=O)N3CCC[C@@H]3C(=O)O)(c3ccccc3)c3ccccc32)CC1` [Co. No. 98] the figure was 4750 nM. In turn, `COc1ccccc1C(=O)NC1CCN(C(=O)[C@H]2CC[C@@](C(=O)N[C@@H](C(=O)O)c3ccccc3)(c3ccccc3)c3ccccc32)CC1` [Co. No. 99] had an IC50 above 10000 nM. As for `COc1ccccc1C(=O)NC1CCN(C(=O)[C@H]2CC[C@@](C(=O)N[C@H](Cc3ccccc3)C(=O)O)(c3ccccc3)c3ccccc32)CC1` [Co. No. 100], the midpoint of inhibition, the IC50, lay at 6050 nM. With `COc1ccccc1C(=O)NC1CCN(C(=O)[C@H]2CC[C@@](C(=O)N[C@@H](C)C(=O)OC(C)(C)C)(c3ccccc3)c3ccccc32)CC1` [Co. No. 101] the figure was 4.2 nM; with `COc1ccccc1C(=O)NC1CCN(C(=O)[C@H]2CC[C@@](C(=O)N[C@H](C(=O)OC(C)(C)C)c3ccccc3)(c3ccccc3)c3ccccc32)CC1` [Co. No. 111], 219 nM. For the compound `COc1ccccc1C(=O)NC1CCN(C(=O)[C@H]2CC[C@@](C(=O)N[C@@H](Cc3ccc(O)cc3)C(=O)OC(C)(C)C)(c3ccccc3)c3ccccc32)CC1` [Co. No. 113], the half-inhibitory concentration (IC50) was 163 nM. In the case of `COc1ccccc1C(=O)NC1CCN(C(=O)[C@H]2CC[C@@](C(=O)N[C@@H](Cc3c[nH]c4ccccc34)C(=O)OC(C)(C)C)(c3ccccc3)c3ccccc32)CC1` [Co. No. 114] it was 203 nM; in that of `COc1ccccc1C(=O)NC1CCN(C(=O)[C@H]2CC[C@@](C(=O)N[C@@H](CC(N)=O)C(=O)OC(C)(C)C)(c3ccccc3)c3ccccc32)CC1` [Co. No. 115], 301 nM; in that of `COc1ccccc1C(=O)NC1CCN(C(=O)[C@H]2CC[C@@](C(=O)N[C@@H](C)C(=O)O)(c3ccccc3)c3ccccc32)CC1` [Co. No. 116], 8410 nM. In turn, `COc1ccccc1C(=O)NC1CCN(C(=O)[C@H]2CC[C@@](C(=O)NC(C(=O)O)C(=O)O)(c3ccccc3)c3ccccc32)CC1` [Co. No. 117] had a half-inhibitory concentration (IC50) of 4750 nM. `COc1ccccc1C(=O)NC1CCN(C(=O)[C@H]2CC[C@@](C(=O)N[C@@H](C(=O)O)C(C)C)(c3ccccc3)c3ccccc32)CC1` [Co. No. 118]: the IC50 was 887 nM. With `COc1ccccc1C(=O)NC1CCN(C(=O)[C@H]2CC[C@@](C(=O)N[C@@H](CC(C)C)C(=O)O)(c3ccccc3)c3ccccc32)CC1` [Co. No. 119] the figure was above 10000 nM; with `COc1ccccc1C(=O)NC1CCN(C(=O)[C@H]2CC[C@@](C(=O)N[C@@H](COC(C)(C)C)C(=O)O)(c3ccccc3)c3ccccc32)CC1` [Co. No. 120], above 10000 nM; with `COc1ccccc1C(=O)NC1CCN(C(=O)[C@H]2CC[C@@](C(=O)N[C@@H](CCC(=O)O)C(=O)O)(c3ccccc3)c3ccccc32)CC1` [Co. No. 122], 4750 nM.

With `COc1ccccc1C(=O)NC1CCN(C(=O)[C@H]2CC[C@@](C(=O)N3CCC[C@H]3C(=O)O)(c3ccccc3)c3ccccc32)CC1` [Co. No. 123], the IC50 is 3820 nM.

`COc1ccccc1C(=O)NC1CCN(C(=O)[C@H]2CC[C@@](C(=O)N[C@H](C(=O)O)c3ccccc3)(c3ccccc3)c3ccccc32)CC1` [Co. No. 124] showed an IC50 above 10000 nM. In the case of `COc1ccccc1C(=O)NC1CCN(C(=O)[C@H]2CC[C@@](C(=O)N[C@@H](Cc3ccccc3)C(=O)O)(c3ccccc3)c3ccccc32)CC1` [Co. No. 125] it was 8610 nM. With `COc1ccccc1C(=O)NC1CCN(C(=O)[C@H]2CC[C@@](C(=O)N[C@@H](Cc3ccc(O)cc3)C(=O)O)(c3ccccc3)c3ccccc32)CC1` [Co. No. 126] the figure was 6190 nM; with `COc1ccccc1C(=O)NC1CCN(C(=O)[C@H]2CC[C@@](C(=O)N[C@@H](Cc3c[nH]c4ccccc34)C(=O)O)(c3ccccc3)c3ccccc32)CC1` [Co. No. 127], above 10000 nM; with `COc1ccccc1C(=O)NC1CCN(C(=O)[C@H]2CC[C@@](C(=O)N[C@@H](CC(N)=O)C(=O)O)(c3ccccc3)c3ccccc32)CC1` [Co. No. 128], above 10000 nM. `COC(=O)[C@H](CCCCNC(C)=O)NC(=O)[C@@]1(c2ccccc2)CC[C@H](C(=O)N2CCC(NC(=O)c3ccccc3OC)CC2)c2ccccc21` [Co. No. 130] showed an IC50 of 262 nM. In the case of `CCOC(=O)[C@H](CCCCNC(C)=O)NC(=O)[C@@]1(c2ccccc2)CC[C@H](C(=O)N2CCC(NC(=O)c3ccccc3OC)CC2)c2ccccc21` [Co. No. 131] it was 45.6 nM; in that of `COc1ccccc1C(=O)NC1CCN(C(=O)[C@H]2CC[C@@](C(=O)N[C@@H](CCCCN)C(=O)O)(c3ccccc3)c3ccccc32)CC1` [Co. No. 132], 355 nM; in that of `CCOC(=O)CNC(=O)[C@@]1(c2ccccc2)CC[C@H](C(=O)N2CCC(NC(=O)c3cccn(C)c3=O)CC2)c2ccccc21` [Co. No. 133], 796 nM.

On to `CCOC(=O)[C@H](C)NC(=O)[C@@]1(c2ccccc2)CC[C@H](C(=O)N2CCC(NC(=O)c3cccn(C)c3=O)CC2)c2ccccc21` [Co. No. 135], for which the IC50 is 1340 nM.

The values are drawn from US8114880B2, “Piperidine or piperazine substituted tetrahydro-naphthalene-1-carboxylic acid MTP inhibiting compounds” (Janssen Pharmaceutica N.V., priority 2006, dated 2012).
